The source of these data is patent EP4786472A1, “BRD4 PROTEIN DEGRADATION AGENT COMPOUND, AND PREPARATION METHOD AND USE THEREFOR” (Miracure Biotechnology Limited, priority 2023, dated 2025).

pIC50: −log10 of the molar value. Like-named read-outs stand apart in the source and are kept apart here. Where only a bound is given, the exact number is not on record here.

Holding throughout (format): cell-based
One assay relates to 22RV1. Put plainly: Cell proliferation assay (CellTiterGlo). Particulars: 22RV1 cells, 72 h compound treatment, CellTiterGlo cell viability, read-out: 22Rv1 ATP average IC50. As for the experimental part:
(§1) Test Example 1. Cell Proliferation Assay
(§2) The cell line used was 22RV1 or LNCaP, and the medium was RPMI-1640 containing 10% FBS and antibiotics. All incubations were performed at 37 °C in a humidified carbon dioxide incubator.
(§3) On day 1, cells were digested with 0.25% trypsin (containing EDTA) and collected by centrifugation. The cells were seeded in a 96-well plate (white wall/transparent bottom) at 5000 cells/well and cultured overnight.
(§4) On day 2, A stock solution of the compound at a concentration of 10 mM was subjected to an 8-fold serial dilution to obtain 8 concentration points. 2 µL of the compound solution at each concentration point was added to 98 µL of fresh medium, and the mixture was mixed homogeneously. Then, 5 µL of the compound solution diluted in the medium at each concentration point was added to 100 µL of overnight medium containing the cells, and 2 replicates were set for each concentration. The mixture was cultured for 72 h.
(§5) After 72 h of compound treatment, the plate was equilibrated to room temperature, 100 µL of CellTiterGlo (Promega) was added. The mixture was mixed homogeneously for 2 min, left to stand at room temperature for 10 min, and then read for luminescence values on a SpectraMax M5 microplate reader to evaluate cell viability. The positive control was 1% Tween-20 and the negative control was 0.1% DMSO. IC50 was generated by 4-parameter non-linear regression fitting in GraphPad Prism.
A general note: In ATP-based viability assays light output follows the ATP content of the culture.

The test system of a further assay is LNCaP. Briefly: Cell proliferation assay (CellTiterGlo). Particulars: LNCaP cells, 72 h compound treatment, CellTiterGlo cell viability, read-out: LNCap ATP average IC50. As for the experimental part:
as §1, §2, §3, §4, §5

For the next assay, the target named is BRD4 (Homo sapiens, UniProt O60885). Put plainly: BRD4 degradation assay (Western-blot / Simple Western) in 22RV1 cells. Particulars: for activity at 0.2 µM: 22Rv1, 5 h, read-out: BRD4 degradation of 22RV1 (200 nM 5 h).

Usually pIC50 stands for −log10 of the IC50, conventionally taken in molar units. With `Cc1sc2c(c1C)C(c1ccc(C#CCN)cc1)=N[C@@H](CC(=O)OC(C)(C)C)c1nnc(C)n1-2` [GNE-0011, reference compound], the negative-log IC50 (pIC50) with 22RV1 and in the assay on LNCaP was above 7.30 each time. Also, the “BRD4 degradation of 22RV1 (200 nM 5 h)” value on BRD4 (22RV1 cells, 200 nM, 5 h, target content as percentage of control (DMSO = 100%)) is “B (20% < B <50%)”.
For the compound `C=CC(=O)Nc1ccc(C2=N[C@@H](CC(=O)OC(C)(C)C)c3nnc(C)n3-c3sc(C)c(C)c32)cc1` [compound 9230], the pIC50 in the assay with 22RV1 (Homo sapiens) and in the assay with LNCaP (Homo sapiens) was above 7.30 each time. For the same compound, at BRD4, the activity at 0.2 µM was below 20%.
On to `C=CS(=O)(=O)Nc1ccc(C2=N[C@@H](CC(=O)OC(C)(C)C)c3nnc(C)n3-c3sc(C)c(C)c32)cc1` [compound 9231], for which the negative logarithm of the IC50 (pIC50) was 6.70 to 7.30 in the assay with 22RV1 (Homo sapiens) and above 7.30 in the assay with LNCaP (Homo sapiens). The activity at 0.2 µM at BRD4 is below 20%.
Turning to `Cc1sc2c(c1C)C(c1ccc(NC(=O)CCl)cc1)=N[C@@H](Cc1nccs1)c1nnc(C)n1-2` [compound 9250], the pIC50 in the assay with 22RV1 (Homo sapiens) and in the assay with LNCaP (Homo sapiens) was above 7.30 in each case. The activity at 0.2 µM at BRD4 fell in the range of 80 to 100%.
As to `CC#CC(=O)Nc1ccc(C2=N[C@@H](Cc3nccs3)c3nnc(C)n3-c3sc(C)c(C)c32)cc1` [compound 9253], the pIC50 in the assay on 22RV1 (Homo sapiens) and in the assay on LNCaP (Homo sapiens) was above 7.30 throughout. Moreover, the activity at 0.2 µM at BRD4 lay in the range of 50 to 80%.
Turning to `CC#CC(=O)Nc1ccc(C2=N[C@@H](CC(=O)OC(C)(C)C)c3nnc(C)n3-c3sc(C)c(C)c32)cc1` [compound 9259], the pIC50 in the assay with 22RV1 (Homo sapiens) and in the assay on LNCaP (Homo sapiens) was above 7.30 each time. Further, the activity at 0.2 µM at BRD4 lay within 20 to 50%.
Turning to `C#CC(=O)Nc1ccc(C2=N[C@@H](CC(=O)OC(C)(C)C)c3nnc(C)n3-c3sc(C)c(C)c32)cc1` [compound 9260], the pIC50 in the assay on 22RV1 (Homo sapiens) and with LNCaP (Homo sapiens) was above 7.30 each time. Further, the activity at 0.2 µM at BRD4 is below 20%.
